For one series, the system named is CD45^+ brain cells. As to the kind of experiment: γH2AX (flow cytometry, immunofluorescence) and annexin V in brain after systemic busulfan conditioning. In kind it is in vivo, mice. The procedure:
FIGS. 15A15-C depict identification of brain-resident putative μ progenitors by BU-susceptibility. […] Inset is a representative laser-scanning confocal microscope photomicrographs of co-immunostaining for γH2AX, neurons (NeuN), microglia (Ibal) or astrocytes (GFAP). Sca1e bar=[…]. Images were acquired at confocal microscope Radiance 2100 (Bio-Rad) 1×70 at magnification 20× and processed by the Soft Work 3.5.0; reconstruction was performed with Adobe Photoshop CS 8.0 software. Magnification 40× in the insets.
Previous studies have provided evidence for the existence of i) a functionally defined microglia precursor population located in the brain and susceptible to ablation upon administration of a busulfan-based conditioning and that may coincide with endogenous CNS-resident microglial progenitors (μP). Phosphorylated histone 2AX (γH2AX) is a sensitive and specific biomarker to track the cells targeted by busulfan in the brain. Thus, functional brain resident μP could be identified by taking advantage of busulfan and γH2AX, which is a pharmacodynamic marker of its cytotoxicity within these cells. γH2AX was investigated as a biomarker of busulfan cytotoxicity. In particular, the presence, distribution and cellular localization of γH2AX were studied by flow cytometry (FC) and immunofluorescence (IF) on brain slices from mice treated with systemic busulfan conditioning. […] By IF, γH2AX was hardly detectable in control mice, except for some γH2AX^+ foci found in few neuronal cells, mainly localized in the hippocampus (FIG. 16C top picture), where a correlation between physiological neuronal activity and H2AX phosphorylation has previously been shown. […] Similar experiments are on going in mice expressing reporter genes expressed by the promoter of markers of hematopoietic stem cell- and microglia-specific genes, such as Fgd5 or Cx3Cr1 in order to better track busulfan-susceptible cells.
A general note: In flow cytometry, cells or beads pass a laser one at a time.

Series [1] deals with bone marrow and brain clonogenic cells. As to the kind of experiment: Colony forming unit (CFU) output of bone marrow and brain cells after conditioning. In kind it is in vivo, mice. As to conditions: busulfan conditioning, 14 days after plating. The procedure:
FIG. 6A depicts an experimental scheme for HCT. CFUs were plated from bone marrow (BM) and brain of naïve (UT), BU-treated and irradiated (IRR) mice, as well as from mice previously transplanted with CD45.2 GFP-transduced HSPCs (BU-HCT). FIG. 6B is a graph depicting number of colonies (#CFC) obtained from the tissues of BU and IRR animals. FIG. 6C is a graph depicting number of colonies (#CFC) and of GFP^+ CFCs obtained from the tissues of BU-HCT animals. FIG. 6D is a graph depicting frequency of GFP^+ cells (and lineage differentiation for BM) retrieved by FACS analysis in BM and brain of secondary recipient mice receiving BM or brain cells or peripheral blood mononuclear cells from primary recipients; mice were sacrificed 4 months after transplant.
HSPCs have been identified within extramedullary tissues and thought to be transiently localized at those sites and able to proliferate locally giving rise to tissue-resident myeloid cells, preferentially dendritic cells. Clonogenic potential was referred to the presence of these cells also in the brain, however upon establishment of parabiotic pairs and differently from what observed in other extra-medullary tissues, chimerism between the two animals was not observed in the brain. […]

The test system of series [2] is microglia progenitors, CD45^+c-kit^+ cells. As to the kind of experiment: Pretreatment to induce microglia progenitor proliferation. In kind it is in vivo, mice. As to conditions: single dose of busulfan 25 mg/kg or ten days oral CSF 1R inhibitor.
Description: These NP formulations were injected ICV in the brain of wild type adult animals that were pretreated with i) a single dose of busulfan 25 mg/kg or ii) ten days of oral administered CSF 1R inhibitor ((Elmore et al., Neuron. […] Five days after NP injection, animals were analyzed for the occurrence of Etoposide-mediated killing of microglia cells and/or their progenitors, using busulfan standard treatment (4 doses of 25 mg/kg) as reference for brain microglia progenitor ablation.
The next series deals with brain-resident μP. Nature of the series: Intra-brain (ICV) administration of busulfan through a cannula in the lateral ventricles.

For the compound `CS(=O)(=O)OCCCCOS(C)(=O)=O` [busulfan], the “early apoptosis by annexin V staining” value in the series with CD45^+ brain cells (CD45^+ brain cells, particularly CD11b^+ and c-kit^+, post-busulfan) is recorded as “early apoptosis is also detected”. Moreover, the “γH2AX signal by immunofluorescence on brain slices” value with CD45^+ brain cells (busulfan-treated mice, lateral ventricles, SVZ, RMS) was “γH2AX^+ signal was increased in nuclei of cells lining the lateral ventricles”. The “γH2AX signal by flow cytometry” value in the series with CD45^+ brain cells (busulfan-treated versus control untreated, live CD45^+ cells, 1 and 5 days from the last busulfan dose) is on record as “increase of γH2AX signal”. Besides, the CFU output entry in series [1] is “drastic reduction in the CFU output”. Moreover, the “proliferation of microglia progenitors / expansion of CD45^+c-kit^+ cells in brain” value in series [2] is given as “induce the proliferation of microglia progenitors and/or expand CD45^+c-kit^+ cells in the brain”. Besides, the “neurotoxicity and local inflammation” value with brain-resident μP (ICV administration of busulfan) is “extensive neurotoxicity and local inflammation”. Besides, the “transplanted HSPC engraftment” value in the series on brain-resident μP (ICV administration of busulfan, data not shown) is “nor able to favor transplanted HSPC engraftment”. In addition, the “exposure of brain-resident μP to busulfan versus systemic drug administration” value with brain-resident μP (ICV administration, different busulfan formulations, data not shown) is reported as “not able to guarantee exposure of brain-resident μP to busulfan levels comparable to those reached by systemic drug administration”.

The values above are taken from patent US11957713B2, “Compositions and methods for treating diseases and disorders of the central nervous system” (priority 2016, dated 2024).
